This is an account of results in patent publication US20220152085A1, “COMBINATION IMMUNOREGULATION AND USES THEREOF” (Ohio State Innovation Foundation, priority 2019, published 2022).

The test system of this assay is E.G7-OVA cells. The assay can be described thus: Endocytic pathways: cellular uptake of PL1-Alexa-Fluor 647-labeled RNA nanoparticles with endocytic inhibitors, flow cytometry. In kind it is cell-based. Particulars: inhibitor 0.5 h before nanoparticles, flow cytometry after 3 h, FIG. 13. The procedure: E.G7-OVA cells were treated with 5-(N-Methyl-N-isopropyl)amiloride (EIPA), chlorpromazine hydrochloride (CPZ), or methyl-β-cyclodextrin (MβCD). After 0.5 h, cells were treated with PL1-Alexa-Fluor 647-labeled RNA nanoparticles. After 3 h, cells were analyzed by flow cytometry. All data are from n=3 biologically independent samples and are presented as mean±S.E.M. Statistical significance was analyzed by the two-tailed Student's t-test. *P<0.05.
Biomimetic compounds, phospholipids and glycolipids, are composed of a biomimetic head (phosphate head or glyco head), an ionizable amino core, and multiple hydrophobic tails (FIG. 11). These phospholipid and glycolipid derivatives (PLs and GLs) were synthesized according to previously reported procedures. See, for example, WO/2019/027999. […] Following this synthetic route, PL1-18 and GL1-16 materials were synthesized (FIG. 4C), which were characterized by […] nuclear magnetic resonance (NMR) and mass spectroscopy (MS) (FIG. 4C). Next, PLs and GLs nanoparticles were formulated with firefly luciferase mRNA (FLuc mRNA), and were characterized according to size, surface charge, and mRNA encapsulation efficiency (FIGS. 12A-12C). […]

Counter-ions that a name gives are not always drawn.

`CN(C)CCCN1c2ccccc2Sc2ccc(Cl)cc21` [CPZ, chlorpromazine hydrochloride]: the “inhibition of cellular uptake of PL1 nanoparticles” value was 56%.

On to methyl-β-cyclodextrin [MβCD], for which the “inhibition of cellular uptake of PL1 nanoparticles” value is 39%.
